According to the NIST ThermoML archive (doi:10.1021/je800110r):
± gives the expanded uncertainty stated by the source.

Settings: 303.15 K, Liquid, Vibrating tube method

CCCCCCCCCC [decane]
Settings | mass density [kg/m3]
29181 kPa | 743.5 ± 2.1
29208 kPa | 743.5 ± 2.1
29234 kPa | 743.6 ± 2.1
29258 kPa | 743.5 ± 2.1
29278 kPa | 743.6 ± 2.1
29302 kPa | 743.6 ± 2.1
29320 kPa | 743.5 ± 2.1
29341 kPa | 743.6 ± 2.1
29363 kPa | 743.6 ± 2.1
29384 kPa | 743.6 ± 2.1
29402 kPa | 743.6 ± 2.1
29426 kPa | 743.6 ± 2.1
29444 kPa | 743.7 ± 2.1
29466 kPa | 743.6 ± 2.1
29484 kPa | 743.7 ± 2.1
29502 kPa | 743.7 ± 2.1
29530 kPa | 743.8 ± 2.1
29548 kPa | 743.7 ± 2.1
29575 kPa | 743.7 ± 2.1
29600 kPa | 743.7 ± 2.1
29618 kPa | 743.8 ± 2.1
29640 kPa | 743.8 ± 2.1
29658 kPa | 743.8 ± 2.1
29685 kPa | 743.9 ± 2.1
29703 kPa | 743.8 ± 2.1
29722 kPa | 743.9 ± 2.1
29747 kPa | 743.9 ± 2.1
29774 kPa | 743.9 ± 2.1
29790 kPa | 743.8 ± 2.1
29812 kPa | 743.8 ± 2.1
29828 kPa | 744 ± 2.1
29859 kPa | 743.9 ± 2.1
29883 kPa | 744 ± 2.1
29905 kPa | 744 ± 2.1
29930 kPa | 743.9 ± 2.1
29952 kPa | 744 ± 2.1
29967 kPa | 744 ± 2.1
29987 kPa | 743.9 ± 2.1
30005 kPa | 744 ± 2.1
30023 kPa | 744.1 ± 2.1
30051 kPa | 743.9 ± 2.1
30077 kPa | 744.1 ± 2.1
30099 kPa | 744 ± 2.1
30125 kPa | 744 ± 2.1
30150 kPa | 744.2 ± 2.1
30169 kPa | 744.1 ± 2.1
30198 kPa | 744.2 ± 2.1
30220 kPa | 744.1 ± 2.1
30248 kPa | 744.2 ± 2.1
30267 kPa | 744.2 ± 2.1
30290 kPa | 744.2 ± 2.1
30322 kPa | 744.2 ± 2.1
30348 kPa | 744.3 ± 2.1
30374 kPa | 744.3 ± 2.1
30397 kPa | 744.2 ± 2.1
30420 kPa | 744.3 ± 2.1
30443 kPa | 744.3 ± 2.1
30468 kPa | 744.4 ± 2.1
30491 kPa | 744.4 ± 2.1
30516 kPa | 744.3 ± 2.1
30533 kPa | 744.4 ± 2.1
30553 kPa | 744.4 ± 2.1
30582 kPa | 744.3 ± 2.1
30601 kPa | 744.5 ± 2.1
30621 kPa | 744.4 ± 2.1
30644 kPa | 744.5 ± 2.1
30665 kPa | 744.4 ± 2.1
30695 kPa | 744.5 ± 2.1
30715 kPa | 744.3 ± 2.1
30739 kPa | 744.4 ± 2.1
30762 kPa | 744.5 ± 2.1
30789 kPa | 744.7 ± 2.1
30809 kPa | 744.5 ± 2.1
30833 kPa | 744.5 ± 2.1
30853 kPa | 744.7 ± 2.1
30884 kPa | 744.6 ± 2.1
30908 kPa | 744.6 ± 2.1
30931 kPa | 744.6 ± 2.1
30956 kPa | 744.5 ± 2.1
30980 kPa | 744.6 ± 2.1
31007 kPa | 744.6 ± 2.1
31031 kPa | 744.6 ± 2.1
31062 kPa | 744.8 ± 2.1
31083 kPa | 744.7 ± 2.1
31111 kPa | 744.7 ± 2.1
31134 kPa | 744.6 ± 2.1
31157 kPa | 744.7 ± 2.1
31178 kPa | 744.8 ± 2.1
31212 kPa | 744.7 ± 2.1
31231 kPa | 744.8 ± 2.1
31252 kPa | 744.9 ± 2.1
31271 kPa | 744.8 ± 2.1
31293 kPa | 744.9 ± 2.1
31311 kPa | 744.9 ± 2.1
31327 kPa | 744.8 ± 2.1
31348 kPa | 744.9 ± 2.1
31363 kPa | 744.9 ± 2.1
31381 kPa | 744.9 ± 2.1
31400 kPa | 744.9 ± 2.1
31425 kPa | 744.9 ± 2.1
31446 kPa | 745 ± 2.1
31468 kPa | 745 ± 2.1
31490 kPa | 744.9 ± 2.1
31515 kPa | 744.9 ± 2.1
31540 kPa | 745 ± 2.1
31565 kPa | 745 ± 2.1
31588 kPa | 745 ± 2.1
31610 kPa | 745.1 ± 2.1
31640 kPa | 745.2 ± 2.1
31660 kPa | 745.1 ± 2.1
31688 kPa | 745.1 ± 2.1
31707 kPa | 745.2 ± 2.1
31725 kPa | 745.2 ± 2.1
31754 kPa | 745.1 ± 2.1
31769 kPa | 745.2 ± 2.1
31798 kPa | 745.1 ± 2.1
31817 kPa | 745.2 ± 2.1
31842 kPa | 745.2 ± 2.1
31861 kPa | 745.1 ± 2.1
31887 kPa | 745.1 ± 2.1
31906 kPa | 745.3 ± 2.1
31925 kPa | 745.3 ± 2.1
31950 kPa | 745.3 ± 2.1
31972 kPa | 745.3 ± 2.1
31995 kPa | 745.3 ± 2.1
32014 kPa | 745.3 ± 2.1
32040 kPa | 745.4 ± 2.1
32059 kPa | 745.4 ± 2.1
32079 kPa | 745.4 ± 2.1
32098 kPa | 745.3 ± 2.1
32128 kPa | 745.3 ± 2.1
32150 kPa | 745.4 ± 2.1
32176 kPa | 745.3 ± 2.1
32198 kPa | 745.5 ± 2.1
32228 kPa | 745.4 ± 2.1
32251 kPa | 745.4 ± 2.1
32274 kPa | 745.5 ± 2.1
